Source: ChEMBL document CHEMBL1201862, “PubChem BioAssay data set” (2004)
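Cultured in 96-well plates, cells were exposed to test compound for 48 hours across five concentrations. At the GI50, growth is halved.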 Activity calls are given as the source filed them. Cut-off read from the data, not from the text of the source: active = GI50 up to about 1.1 µM and inactive = higher.

What was measured:
Experiment in all cases: growth of human tumour cells (NCI), 48 h
BT-549 = tested on: BT-549
CAKI-1 = tested on: CAKI-1
CCRF-CEM = tested on: CCRF-CEM
HCT-116 = tested on: HCT-116
HCT-15 = tested on: HCT-15
HL-60 = tested on: HL-60
HOP-62 = tested on: HOP-62
K562 = tested on: K562
LOX IMVI = tested on: LOX IMVI
M14 = tested on: M14
MDA-N = tested on: MDA-N
NCI-H226 = tested on: NCI-H226
NCI/ADR-RES = tested on: NCI/ADR-RES
OVCAR-4 = tested on: OVCAR-4
SF-268 = tested on: SF-268
SK-MEL-5 = tested on: SK-MEL-5
SN12C = tested on: SN12C
SW-620 = tested on: SW-620
TK-10 = tested on: TK-10
UACC-62 = tested on: UACC-62

Structure (SMILES)	GI50 (BT-549)	GI50 (CAKI-1)	GI50 (CCRF-CEM)	GI50 (HCT-116)	GI50 (HCT-15) [µM]	GI50 (HL-60)	GI50 (HOP-62)	GI50 (K562)	GI50 (LOX IMVI)	GI50 (M14)	GI50 (MDA-N)	GI50 (NCI-H226)	GI50 (NCI/ADR-RES)	GI50 (OVCAR-4)	GI50 (SF-268)	GI50 (SK-MEL-5)	GI50 (SN12C)	GI50 (SW-620)	GI50 (TK-10)	GI50 (UACC-62)
CCCn1c(=O)c2nn3c(=O)n(CCC)c(=O)c3nn2c1=O	> 100 µM (inactive)	> 100 µM (inactive)	> 100 µM (inactive)	> 100 µM (inactive)	> 100	> 100 µM (inactive)	> 100 µM (inactive)	> 100 µM (inactive)	> 100 µM (inactive)	> 100 µM (inactive)	> 100 µM (inactive)	> 100 µM (inactive)	> 100 µM (inactive)	> 100 µM (inactive)	> 100 µM (inactive)	> 100 µM (inactive)	> 100 µM (inactive)	> 100 µM (inactive)	> 100 µM (inactive)	> 100 µM (inactive)
[O-]c1c2cc(-[n+]3c(-c4ccccc4)cc(-c4ccccc4)cc3-c3ccccc3)cc1CO[C@@H](c1ccccc1)[C@H](c1ccccc1)OCCOCCO[C@@H](c1ccccc1)[C@H](c1ccccc1)OC2	0.0356 µM (active)	0.335 µM (active)	0.048 µM (active)	0.0362 µM (active)	0.319	0.0204 µM (active)	0.129 µM (active)	0.0284 µM (active)	0.0577 µM (active)	0.0687 µM (active)	0.0426 µM (active)	0.0885 µM (active)	1.14 µM (inactive)	0.107 µM (active)	0.0635 µM (active)	0.03 µM (active)	0.0398 µM (active)	0.0562 µM (active)	0.24 µM (active)	0.0577 µM (active)
O=C(c1cc2c(c3ccccc13)NC1(CCCCC1)N=C2C(F)(F)F)C(F)(F)F	4.37 µM (inactive)	3.35 µM (inactive)	3.39 µM (inactive)	3.3 µM (inactive)	5.07	2.9 µM (inactive)	40.5 µM (inactive)	4.3 µM (inactive)	3.33 µM (inactive)	6.17 µM (inactive)	3.72 µM (inactive)	4.41 µM (inactive)	4.53 µM (inactive)	3.73 µM (inactive)	5.85 µM (inactive)	5.74 µM (inactive)	3.66 µM (inactive)	4.7 µM (inactive)	4.01 µM (inactive)	3.78 µM (inactive)
Cc1ccc(-[n+]2cc([O-])on2)cc1	> 100 µM (inactive)	> 100 µM (inactive)	> 100 µM (inactive)	> 100 µM (inactive)	> 100	> 100 µM (inactive)	> 100 µM (inactive)	> 100 µM (inactive)	> 100 µM (inactive)	> 100 µM (inactive)	> 100 µM (inactive)	10.1 µM (inactive)	> 100 µM (inactive)	> 100 µM (inactive)	> 100 µM (inactive)	> 100 µM (inactive)	> 100 µM (inactive)	> 100 µM (inactive)	> 100 µM (inactive)	> 100 µM (inactive)
O=C(O)CCSC(=S)Nc1ccc([N+](=O)[O-])cc1	36.2 µM (inactive)	> 100 µM (inactive)	23.7 µM (inactive)	60.7 µM (inactive)	> 56.6	20.8 µM (inactive)	> 94.2 µM (inactive)	27.2 µM (inactive)	31.9 µM (inactive)	> 85.9 µM (inactive)	23.1 µM (inactive)	> 75.2 µM (inactive)	40.8 µM (inactive)	> 56.5 µM (inactive)	34.5 µM (inactive)	20.3 µM (inactive)	> 74 µM (inactive)	> 70.1 µM (inactive)	51.8 µM (inactive)	21.6 µM (inactive)
COC1(O)C(=O)c2ccccc2OC1(OC)c1ccccc1 (stereo not given)	> 100 µM (inactive)	> 100 µM (inactive)	46.8 µM (inactive)	> 100 µM (inactive)	31.8	50.4 µM (inactive)	> 100 µM (inactive)	42 µM (inactive)	65.9 µM (inactive)	> 100 µM (inactive)	> 100 µM (inactive)	> 100 µM (inactive)	77.8 µM (inactive)	> 100 µM (inactive)	> 100 µM (inactive)	> 100 µM (inactive)	> 100 µM (inactive)	> 100 µM (inactive)	> 100 µM (inactive)	> 100 µM (inactive)
O=C(/C=C/c1cc(O)c(O)cc1O)OCCc1ccccc1	25.7 µM (inactive)	24.5 µM (inactive)	2.07 µM (inactive)	> 41.7 µM (inactive)	22.2	1.3 µM (inactive)	31.1 µM (inactive)	2.28 µM (inactive)	12.9 µM (inactive)	14.9 µM (inactive)	13.2 µM (inactive)	35.6 µM (inactive)	27.2 µM (inactive)	17.7 µM (inactive)	19 µM (inactive)	18.7 µM (inactive)	15.6 µM (inactive)	5.19 µM (inactive)	6.11 µM (inactive)	17.9 µM (inactive)
O=[N+]([O-])c1cc2no[n+]([O-])c2cc1N1CCCCC1	9.29 µM (inactive)	3.35 µM (inactive)	0.38 µM (active)	1.93 µM (inactive)	3.21	1.5 µM (inactive)	4.34 µM (inactive)	1.43 µM (inactive)	1.79 µM (inactive)	2.62 µM (inactive)	2.59 µM (inactive)	39.8 µM (inactive)	3.15 µM (inactive)	2.25 µM (inactive)	8.18 µM (inactive)	15.3 µM (inactive)	1.99 µM (inactive)	1.97 µM (inactive)	3.33 µM (inactive)	13.4 µM (inactive)
